These compounds were tested against T1, Recombinant human KIF18A (1-467His-tagged) protein (Homo sapiens, UniProt Q8NI77) (assay: KIF18A enzyme assay (microtubule-stimulated ATPase activity, ADP-Glo)). Conditions: 30 nM KIF18A, 75 μM ATP, 30 μg/mL pig microtubules; read-out: Inhibitory activity against KIF18A IC50.
T1 construct: Recombinant human KIF18A (1-467His-tagged) protein; His; made in house
Assay type: biochemical
Protocol: In Vitro Assay of the Compounds of the Present Invention for Inhibiting Enzymatic Activity of KIF18A
KIF18A enzyme assay: The enzymatic activity of KIF18A after treatment with the compounds was measured by an assay of microtubule-stimulated ATPase activity. ADP generated from the ATPase reaction was measured in this assay. The compounds were serially diluted 2-fold in DMSO over a range of 22 concentration points. […] Concentrations of KIF18A protein, microtubules, and ATP in the reaction were optimized for a standardized homogenous enzyme assay using an ADP-Glo kinase/ATPase assay kit. A reaction buffer [(15 mM Tris, pH 7.5), 10 mM MgCl2, 0.01% PluronicF-68, 1 μM paclitaxel, and 30 μg/mL pig microtubules] was prepared. […] The resulting reaction mixture was incubated at room temperature for another 15 min. 5 μL of ADP-Glo reagent and 2.5 μL of the reaction mixture were mixed and the resulting mixture was incubated at room temperature for 40 min. 10 μL of ADP-Glo detection reagent was added and the mixture was incubated at room temperature for 40 min. Luminescence was read using a microplate reader and compared with that of the DMSO group, and then the inhibition percentages and IC50 values of the compounds were calculated.

T1 sequence (Q8NI77 1-467): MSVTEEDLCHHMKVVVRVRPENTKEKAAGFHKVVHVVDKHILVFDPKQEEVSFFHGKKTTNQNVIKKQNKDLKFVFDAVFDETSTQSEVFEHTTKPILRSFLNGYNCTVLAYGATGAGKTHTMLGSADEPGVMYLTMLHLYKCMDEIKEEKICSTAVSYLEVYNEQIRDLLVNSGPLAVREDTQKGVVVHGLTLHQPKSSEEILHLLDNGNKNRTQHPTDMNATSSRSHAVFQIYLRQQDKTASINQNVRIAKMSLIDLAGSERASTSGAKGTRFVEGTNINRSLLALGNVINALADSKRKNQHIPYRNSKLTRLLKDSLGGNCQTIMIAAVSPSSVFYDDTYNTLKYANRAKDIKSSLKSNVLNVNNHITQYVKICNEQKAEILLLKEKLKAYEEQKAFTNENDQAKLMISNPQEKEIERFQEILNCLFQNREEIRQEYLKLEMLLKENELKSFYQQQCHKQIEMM
T1 sequence (P02550 whole entry partner): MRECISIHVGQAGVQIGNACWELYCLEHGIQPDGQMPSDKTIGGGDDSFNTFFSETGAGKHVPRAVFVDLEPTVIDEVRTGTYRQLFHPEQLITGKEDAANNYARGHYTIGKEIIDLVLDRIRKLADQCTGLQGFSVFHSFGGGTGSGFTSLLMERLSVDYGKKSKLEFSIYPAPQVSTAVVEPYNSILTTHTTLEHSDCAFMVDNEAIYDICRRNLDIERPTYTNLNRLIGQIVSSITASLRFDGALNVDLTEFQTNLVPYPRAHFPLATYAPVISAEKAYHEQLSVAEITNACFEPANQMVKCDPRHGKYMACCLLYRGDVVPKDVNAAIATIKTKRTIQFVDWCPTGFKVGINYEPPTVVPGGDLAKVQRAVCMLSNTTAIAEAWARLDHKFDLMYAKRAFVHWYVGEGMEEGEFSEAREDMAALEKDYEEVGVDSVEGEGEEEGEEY
T1 sequence (P02554 whole entry partner): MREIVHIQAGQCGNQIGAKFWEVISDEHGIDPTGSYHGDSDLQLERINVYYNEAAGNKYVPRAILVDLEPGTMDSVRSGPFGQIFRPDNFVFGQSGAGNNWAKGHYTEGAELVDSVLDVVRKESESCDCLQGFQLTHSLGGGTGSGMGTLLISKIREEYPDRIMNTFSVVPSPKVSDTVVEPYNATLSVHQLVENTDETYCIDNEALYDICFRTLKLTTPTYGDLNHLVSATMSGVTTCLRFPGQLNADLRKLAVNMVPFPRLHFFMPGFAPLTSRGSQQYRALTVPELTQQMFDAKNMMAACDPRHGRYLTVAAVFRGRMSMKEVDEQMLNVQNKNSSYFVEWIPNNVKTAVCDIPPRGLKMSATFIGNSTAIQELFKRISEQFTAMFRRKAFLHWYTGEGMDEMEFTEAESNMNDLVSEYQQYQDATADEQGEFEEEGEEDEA

IC50, ≤ 0.1 µM:
C[C@@H]1CN(c2nc(NC(=O)c3ccc(S(=O)(=O)N[C@@H](C)CO)cc3N3CCC4(CC3)CC4)ccc2[N+](=O)[O-])CCO1 [Compound 95]
C[C@H](CO)NS(=O)(=O)c1ccc(C(=O)Nc2ccc([N+](=O)[O-])c(N3CCO[C@H](C)C3)n2)c(N2CCC3(CC2)CC3)c1 [Compound 96]
C[C@@H]1CN(c2cc(NC(=O)c3cnc(NS(=O)(=O)CCO)cc3N3CCC4(CC3)CC4)ccc2[N+](=O)[O-])CCO1 [Compound 98]
C[C@H]1CN(c2cc(NC(=O)c3cnc(NS(=O)(=O)CCO)cc3N3CCC4(CC3)CC4)ccc2[N+](=O)[O-])CCO1 [Compound 99]
O=C(Nc1ccc([N+](=O)[O-])c(N2CC(F)(F)C2)c1)c1cnc(NS(=O)(=O)CCO)cc1N1CCC2(CC1)CC2 [Compound 100]
O=C(Nc1ccc([N+](=O)[O-])c(OCCC(F)(F)F)c1)c1cnc(NS(=O)(=O)CCO)cc1N1CCC2(CC1)CC2 [Compound 101]
O=C(Nc1ccc([N+](=O)[O-])c(N2CCC3(CC3)C2)c1)c1cnc(NS(=O)(=O)CCO)cc1N1CCC2(CC1)CC2 [Compound 102]
O=C(Nc1ccc([N+](=O)[O-])c(OC2CCC2)c1)c1cnc(NS(=O)(=O)CCO)cc1N1CCC2(CC1)CC2 [Compound 103]
CC1(F)CCN(c2cc(NC(=O)c3cnc(NS(=O)(=O)CCO)cc3N3CCC4(CC3)CC4)ccc2[N+](=O)[O-])C1 (stereo not shown) [Compound 104]
O=C(Nc1ccc([N+](=O)[O-])c(N2CCC(F)CC2)c1)c1cnc(NS(=O)(=O)CCO)cc1N1CCC2(CC1)CC2 [Compound 105]
O=C(Nc1ccc([N+](=O)[O-])c(N2CC3CC3C2)c1)c1cnc(NS(=O)(=O)CCO)cc1N1CCC2(CC1)CC2 (stereo not shown) [Compound 106]
CC(C)(CO)Nc1cc(NC(=O)c2cnc(NS(=O)(=O)CCO)cc2N2CCC3(CC2)CC3)ccc1[N+](=O)[O-] [Compound 107]
O=C(Nc1ccc([N+](=O)[O-])c(N2CCOCC2)c1)c1cnc(NS(=O)(=O)CCO)cc1N1CCC2(CC1)CC2 [Compound 108]
C[C@@H](CO)S(=O)(=O)Nc1cc(N2CCC3(CC2)CC3)c(C(=O)Nc2ccc([N+](=O)[O-])c(N3CCC(F)(F)CC3)c2)cn1 [Compound 109]
C[C@H](CO)S(=O)(=O)Nc1cc(N2CCC3(CC2)CC3)c(C(=O)Nc2ccc([N+](=O)[O-])c(N3CCC(F)(F)CC3)c2)cn1 [Compound 110]
C[C@@H]1CN(c2cc(NC(=O)c3cnc(NS(=O)(=O)[C@@H](C)CO)cc3N3CCC4(CC3)CC4)ccc2[N+](=O)[O-])CCO1 [Compound 111]
C[C@@H]1CN(c2cc(NC(=O)c3cnc(NS(=O)(=O)[C@H](C)CO)cc3N3CCC4(CC3)CC4)ccc2[N+](=O)[O-])CCO1 [Compound 112]
O=C(Nc1ccc([N+](=O)[O-])c(N2CCC(F)(F)CC2)c1)c1cnc(S(=O)(=O)NCCO)cc1N1CCC2(CC1)CC2 [Compound 113]
C[C@@H]1CN(c2cc(NC(=O)c3cnc(S(=O)(=O)NCCO)cc3N3CCC4(CC3)CC4)ccc2[N+](=O)[O-])CCO1 [Compound 114]
C[C@H]1CN(c2cc(NC(=O)c3cnc(S(=O)(=O)NCCO)cc3N3CCC4(CC3)CC4)ccc2[N+](=O)[O-])CCO1 [Compound 115]
O=C(Nc1ccc([N+](=O)[O-])c(N2CC(F)(F)C2)c1)c1cnc(S(=O)(=O)NCCO)cc1N1CCC2(CC1)CC2 [Compound 116]
O=C(Nc1ccc([N+](=O)[O-])c(OCCC(F)(F)F)c1)c1cnc(S(=O)(=O)NCCO)cc1N1CCC2(CC1)CC2 [Compound 117]
O=C(Nc1ccc([N+](=O)[O-])c(N2CCC3(CC3)C2)c1)c1cnc(S(=O)(=O)NCCO)cc1N1CCC2(CC1)CC2 [Compound 118]
O=C(Nc1ccc([N+](=O)[O-])c(OC2CCC2)c1)c1cnc(S(=O)(=O)NCCO)cc1N1CCC2(CC1)CC2 [Compound 119]
CC1(F)CCN(c2cc(NC(=O)c3cnc(S(=O)(=O)NCCO)cc3N3CCC4(CC3)CC4)ccc2[N+](=O)[O-])C1 (stereo not shown) [Compound 120]
O=C(Nc1ccc([N+](=O)[O-])c(N2CCC(F)CC2)c1)c1cnc(S(=O)(=O)NCCO)cc1N1CCC2(CC1)CC2 [Compound 121]
O=C(Nc1ccc([N+](=O)[O-])c(N2CC3CC3C2)c1)c1cnc(S(=O)(=O)NCCO)cc1N1CCC2(CC1)CC2 (stereo not shown) [Compound 122]
CC(C)(CO)Nc1cc(NC(=O)c2cnc(S(=O)(=O)NCCO)cc2N2CCC3(CC2)CC3)ccc1[N+](=O)[O-] [Compound 123]
O=C(Nc1ccc([N+](=O)[O-])c(N2CCOCC2)c1)c1cnc(S(=O)(=O)NCCO)cc1N1CCC2(CC1)CC2 [Compound 124]
C[C@@H](CO)NS(=O)(=O)c1cc(N2CCC3(CC2)CC3)c(C(=O)Nc2ccc([N+](=O)[O-])c(N3CCC(F)(F)CC3)c2)cn1 [Compound 125]
C[C@H](CO)NS(=O)(=O)c1cc(N2CCC3(CC2)CC3)c(C(=O)Nc2ccc([N+](=O)[O-])c(N3CCC(F)(F)CC3)c2)cn1 [Compound 126]
C[C@@H]1CN(c2cc(NC(=O)c3cnc(S(=O)(=O)N[C@@H](C)CO)cc3N3CCC4(CC3)CC4)ccc2[N+](=O)[O-])CCO1 [Compound 127]
C[C@H](CO)NS(=O)(=O)c1cc(N2CCC3(CC2)CC3)c(C(=O)Nc2ccc([N+](=O)[O-])c(N3CCO[C@H](C)C3)c2)cn1 [Compound 128]
C[C@@H]1CN(c2nc(NC(=O)c3cnc(NS(=O)(=O)CCO)cc3N3CCC4(CC3)CC4)ccc2[N+](=O)[O-])CCO1 [Compound 130]
C[C@H]1CN(c2nc(NC(=O)c3cnc(NS(=O)(=O)CCO)cc3N3CCC4(CC3)CC4)ccc2[N+](=O)[O-])CCO1 [Compound 131]
O=C(Nc1ccc([N+](=O)[O-])c(N2CC(F)(F)C2)n1)c1cnc(NS(=O)(=O)CCO)cc1N1CCC2(CC1)CC2 [Compound 132]
O=C(Nc1ccc([N+](=O)[O-])c(OCCC(F)(F)F)n1)c1cnc(NS(=O)(=O)CCO)cc1N1CCC2(CC1)CC2 [Compound 133]
O=C(Nc1ccc([N+](=O)[O-])c(N2CCC3(CC3)C2)n1)c1cnc(NS(=O)(=O)CCO)cc1N1CCC2(CC1)CC2 [Compound 134]
O=C(Nc1ccc([N+](=O)[O-])c(OC2CCC2)n1)c1cnc(NS(=O)(=O)CCO)cc1N1CCC2(CC1)CC2 [Compound 135]
CC1(F)CCN(c2nc(NC(=O)c3cnc(NS(=O)(=O)CCO)cc3N3CCC4(CC3)CC4)ccc2[N+](=O)[O-])C1 (stereo not shown) [Compound 136]
O=C(Nc1ccc([N+](=O)[O-])c(N2CCC(F)CC2)n1)c1cnc(NS(=O)(=O)CCO)cc1N1CCC2(CC1)CC2 [Compound 137]
O=C(Nc1ccc([N+](=O)[O-])c(N2CC3CC3C2)n1)c1cnc(NS(=O)(=O)CCO)cc1N1CCC2(CC1)CC2 (stereo not shown) [Compound 138]
CC(C)(CO)Nc1nc(NC(=O)c2cnc(NS(=O)(=O)CCO)cc2N2CCC3(CC2)CC3)ccc1[N+](=O)[O-] [Compound 139]
O=C(Nc1ccc([N+](=O)[O-])c(N2CCOCC2)n1)c1cnc(NS(=O)(=O)CCO)cc1N1CCC2(CC1)CC2 [Compound 140]
C[C@@H](CO)S(=O)(=O)Nc1cc(N2CCC3(CC2)CC3)c(C(=O)Nc2ccc([N+](=O)[O-])c(N3CCC(F)(F)CC3)n2)cn1 [Compound 141]
C[C@H](CO)S(=O)(=O)Nc1cc(N2CCC3(CC2)CC3)c(C(=O)Nc2ccc([N+](=O)[O-])c(N3CCC(F)(F)CC3)n2)cn1 [Compound 142]
C[C@@H]1CN(c2nc(NC(=O)c3cnc(NS(=O)(=O)[C@@H](C)CO)cc3N3CCC4(CC3)CC4)ccc2[N+](=O)[O-])CCO1 [Compound 143]
C[C@@H]1CN(c2nc(NC(=O)c3cnc(NS(=O)(=O)[C@H](C)CO)cc3N3CCC4(CC3)CC4)ccc2[N+](=O)[O-])CCO1 [Compound 144]
O=C(Nc1ccc([N+](=O)[O-])c(N2CCC(F)(F)CC2)n1)c1cnc(S(=O)(=O)NCCO)cc1N1CCC2(CC1)CC2 [Compound 145]
C[C@@H]1CN(c2nc(NC(=O)c3cnc(S(=O)(=O)NCCO)cc3N3CCC4(CC3)CC4)ccc2[N+](=O)[O-])CCO1 [Compound 146]
C[C@H]1CN(c2nc(NC(=O)c3cnc(S(=O)(=O)NCCO)cc3N3CCC4(CC3)CC4)ccc2[N+](=O)[O-])CCO1 [Compound 147]
O=C(Nc1ccc([N+](=O)[O-])c(N2CC(F)(F)C2)n1)c1cnc(S(=O)(=O)NCCO)cc1N1CCC2(CC1)CC2 [Compound 148]
O=C(Nc1ccc([N+](=O)[O-])c(OCCC(F)(F)F)n1)c1cnc(S(=O)(=O)NCCO)cc1N1CCC2(CC1)CC2 [Compound 149]
O=C(Nc1ccc([N+](=O)[O-])c(N2CCC3(CC3)C2)n1)c1cnc(S(=O)(=O)NCCO)cc1N1CCC2(CC1)CC2 [Compound 150]
O=C(Nc1ccc([N+](=O)[O-])c(OC2CCC2)n1)c1cnc(S(=O)(=O)NCCO)cc1N1CCC2(CC1)CC2 [Compound 151]
